According to patent US20220280578A1, “METHOD FOR TREATING ALZHEIMER'S DISEASE BY REGULATING INTESTINAL MICROORGANISMS” (SHANGHAI GREEN VALLEY PHARMACEUTICAL CO., LTD., priority 2019, published 2022):
Entries after “also recorded” stand apart in the source; their conditions may differ.

Experiments:
naive CD4+ T cells = test: In vitro differentiation and proliferation induced by phenylalanine and isoleucine; format: cell-based, mouse; conditions: amino acid added directly to naive CD4+ T cell culture; for Th1 cell proliferation: CellTrace
Description: In Vitro differentiation and proliferation induced by phenylalanine and isoleucine. Naive CD4^+ T cells were separated from the splenocytes of 8-month-old C57BL/6 female mice using the Naive CD4^+ T cell Isolation Kit (Stem Cell, #19765), and the cells were stained with CellTrace (Thermo Fisher, #C34557). A total of 1×10^5 cells/well in 0.2 mL of RPMI-1640 medium were plated in 96-well plates, and the culture medium was supplemented with cytokines or blocking antibodies. Th0: 10 ng/mL mIL-2; Th1:10 ng/mL mIL-2, 5000 ng/mL 11B11. Phenylalanine (final concentration, 2 mmol/L), isoleucine (final concentration, 2 mmol/L) and OM1 (final concentration, 100 μg/mL) were added into the indicated wells, respectively. After incubation at 37° C. in 5% CO2 for 5 days, cells were acquired on a BD Fortessa cytometer, and data were analyzed using FlowJo software.

WT mice (C57) = test: Intraperitoneal injection of phenylalanine and isoleucine, blood Th1 cells; format: in vivo, mouse; conditions: intraperitoneal injection 50 mg/kg for 4 days
SLC7A5 = biological target: T1, SLC7A5 (Mus musculus, UniProt Q9Z127); test: Uptake of 13C-labelled phenylalanine by CD4+ T cells; format: cell-based; conditions: 0.5 h incubation
T1 construct: endogenous in cells; host or cells: Primary naive CD4+ T cells from splenocytes of C57BL/6 mice, used as Th0 cells and IL-12-induced Th1 cells
T1 sequence (Q9Z127 whole entry): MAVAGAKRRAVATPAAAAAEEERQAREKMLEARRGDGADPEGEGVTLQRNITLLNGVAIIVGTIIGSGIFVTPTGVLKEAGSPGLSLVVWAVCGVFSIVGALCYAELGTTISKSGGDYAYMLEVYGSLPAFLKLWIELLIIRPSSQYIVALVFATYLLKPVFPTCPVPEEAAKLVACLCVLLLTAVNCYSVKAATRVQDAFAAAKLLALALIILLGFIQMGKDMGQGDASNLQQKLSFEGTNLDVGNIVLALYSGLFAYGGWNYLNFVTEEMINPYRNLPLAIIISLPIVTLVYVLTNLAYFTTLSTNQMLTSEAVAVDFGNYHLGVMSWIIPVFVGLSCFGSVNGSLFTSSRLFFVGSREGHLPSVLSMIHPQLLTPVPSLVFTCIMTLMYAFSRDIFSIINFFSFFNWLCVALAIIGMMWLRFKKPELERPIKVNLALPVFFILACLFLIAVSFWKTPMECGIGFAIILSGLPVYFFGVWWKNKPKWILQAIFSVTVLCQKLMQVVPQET
T1 sequence (P10852 whole entry partner): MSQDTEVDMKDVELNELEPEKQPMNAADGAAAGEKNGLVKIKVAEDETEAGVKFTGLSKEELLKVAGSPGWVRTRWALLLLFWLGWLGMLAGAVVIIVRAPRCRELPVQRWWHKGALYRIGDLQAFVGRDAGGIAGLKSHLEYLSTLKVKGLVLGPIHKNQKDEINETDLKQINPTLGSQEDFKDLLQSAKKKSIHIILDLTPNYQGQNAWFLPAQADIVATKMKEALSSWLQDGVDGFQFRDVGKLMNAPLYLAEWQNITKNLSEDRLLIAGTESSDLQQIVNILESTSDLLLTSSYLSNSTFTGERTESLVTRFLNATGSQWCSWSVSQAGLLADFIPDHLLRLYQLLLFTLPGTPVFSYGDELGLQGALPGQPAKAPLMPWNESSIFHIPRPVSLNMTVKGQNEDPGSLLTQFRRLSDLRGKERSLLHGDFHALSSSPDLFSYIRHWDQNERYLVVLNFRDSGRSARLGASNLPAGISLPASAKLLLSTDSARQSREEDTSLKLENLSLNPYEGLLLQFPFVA
Description: Uptake of phenylalanine. Naive CD4^+ T cells were separated from the is splenocytes of 8-month-old C57BL/6 female mice using the Naive CD4^+ T cell Isolation Kit (Stem Cell, Cat No. 19765) and were induced to Th1 differentiation by 20 ng/mL IL-12. After 3 days, a total of 5×10^5 cells/well Th1 cells and Th0 cells in 0.5 mL of RPMI-1640 medium were plated into 48-well plates. ^13C-labelled phenylalanine and 5 mM amino transporter inhibitor BCH were added into indicated wells. After 0.5 h, cells were collected and washed twice with ice-cold D-PBS. 50 μL deionized water was added and cells were lysed through freezing and thawing twice at −80° C. The cell lysate was centrifuged at 12000×g for 10 min and ^13C-labelled phenylalanine in the supernatant was analyzed by Mass spectrometry.

5XFAD mice = test: JPH 203 in 5XFAD mice, Th1 cells in the brain by flow cytometry; format: in vivo, mouse; conditions: 6-month-old 5XFAD mice, 50 mg/kg intraperitoneal every day for one month, vs vehicle
From the text: Flow cytometry sample preparation and analysis. Mice were anesthetized, blood samples were collected into EDTA-containing tubes, and red blood cells were removed using 1×red blood lysis buffer. Before tissue is collection, the brains were perfused with ice-cold PBS to avoid sampling the circulating blood immune cells, and the brains were removed, chopped into pieces and dissected according to the introduction of the Adult Brain Dissociation Kit (Miltenyi, Cat No. 130-107-677) using the gentleMACS dissociator (Miltenyi Biotec). The brain homogenate was filtered through a 70-μm cell strainer and centrifuged at 300×g for 5 min at 4° C. […] All samples were counted and adjusted to a density of 2-3 ×10^6/100 μL, labeled with a Live/Dead kit for 30 min, and then centrifuged at 500×g for 3 min at 4° C. […] Relevant negative control, Fluorescence Minus One (FMO) control and each fluorescence compensation sample were used to adjust fluorescence compensation and identify the populations of interest. Cells were acquired on a BD Aria III cytometer, and data were analyzed using FlowJo software.
Amino acids could be taken by immune cells through specific transporters. […] One month after the administration, the mice were euthanized, and the proportion of pro-inflammatory Th 1 cells in the brains of the mice in the control group and the JPH 203 treatment group was analyzed by flow cytometry. […]

| Compound | Th0 cell differentiation into Th1 cells (naive CD4+ T cells) | Th1 cell proliferation (naive CD4+ T cells) | Th1 cell count in the blood (WT mice (C57)) | uptake of 13C-labelled phenylalanine by CD4+ T cells (SLC7A5) | proportion of pro-inflammatory Th1 cells in the mouse brain (5XFAD mice; 50 mg/kg) | proportion of pro-inflammatory Th1 cells in the mouse brain (5XFAD mice; listed as JPH 203, 50 mg/kg) |
| --- | --- | --- | --- | --- | --- | --- |
| N[C@@H](Cc1ccccc1)C(=O)O [phenylalanine] | increased | increased | increased significantly |  |  |  |
| CC[C@H](C)[C@H](N)C(=O)O [isoleucine] | increased | increased | increased significantly |  |  |  |
| Nc1cc(COc2c(Cl)cc(C[C@H](N)C(=O)O)cc2Cl)c2oc(-c3ccccc3)nc2c1 [JPH203] |  |  |  | blocked | effectively inhibits; also recorded: significantly downregulated | significantly reduces |
